The data set concerns TLR7 and TLR9. Nature of the data set: Tape stripping skin lesions in lupus prone (NZBxNZW)F1 mice. Particulars: for Dermal inflammation / Epidermis thickness / Intraepithelial inflammation / Panniculum inflammation / Ulceration: histological score. The class given is in vivo. Also noted: key to Dermal inflammation: graded on a scale of 1 to 3. As to the method: SEQ ID NO:42 (IRS) was used starting the day of the tape stripping during the entire course of the experiments (FIGS. 29A,D,E) or starting at 4 days post injury when the disease is already established (FIGS. 30A,D,E). In both cases SEQ ID NO:42 (IRS) (100 μg; s. c.) was administered twice a week. Also described is the timing of PDC depletion experiments described in FIGS. 29A,F,G. Depleting antibody to PDC anti-120G8 (250 μg; i.p.) were given at day −2 and day 0, eight hours before tape stripping and then given twice a week for the entire duration of the experiment. Experiments were stopped in between 15-23 days after initial tape stripping depending on the progression of the lesions in the untreated groups.
C57BL/6 and 129 mice were purchased from Charles River Laboratories. (NZBxNZW)F1 female mice were purchased from Jackson Laboratories and used at 18-22 weeks of age. MyD88/KO and TLR9/KO mouse colonies were maintained at Simonsen Laboratories and used with age matched C57BL/6 wild type controls at 8-12 weeks of age. Tape stripping was performed after shaving the dorsal area (3×3 cm) using 10 strokes with duct tape. IRS was administered just before tape stripping SC at a distant site. Alternatively, in (NZBxNZW)F1 mice, IRS was administered long term. In certain experiments PDC and neutrophils were depleted with 250 μg of antibody given IP at day −2 and day 0, eight hours before tape stripping. Anti-120G8 (Imgenex) was used for depletion of PDC (Asselin-Paturel et al., 2003), and anti-GR1-LY6G (clone 1A8; Biolegend) was used for depletion of neutrophils (Daley et al., 2008). […] In experiments where PDC were depleted, long term 120G8 depleting antibody was administered. Experiments in (NZBxNZW)F1 were terminated between 15-23 days after initial tape stripping, depending on the progression of the lesions in the untreated groups in each experiment. Percentage of area with open lesions in (NZBxNZW)F1 and normal mice was evaluated with Nikon software NIS-elements.
The biopsy specimens were fixed in formalin and embedded in paraffin. Sections were stained with hematoxylin-eosin. Multiple skin sections of 12-30 mice per group were evaluated in a blinded fashion. The following histological features were assessed and graded on a scale of 1 to 3: i) epidermis thickness ii) degree of ulceration iii) intraepithelial inflammation, iv) dermal inflammation, and v) panniculum inflammation. Histological grading was assigned as follows: 0, normal skin architecture, few dermal leukocytes and regular adnexa; 1, mild inflammation, slight epidermal hyperplasia and signs of dermal fibroblast proliferation; 2, moderate inflammation, noticeable epidermal hyperplasia (two- to four-fold increase in epithelial thickness) with hyperkeratosis, significant leukocyte/neutrophil-granulocyte dermal infiltrate with few macrophages, moderate fibrosclerosis of the dermis, reduction in the number of adnexa, slight degenerative changes of the hypodermic adipose tissue; 3, severe inflammation, marked epidermal hyperplasia (>four-fold increase in epithelial thickness) with hyperkeratosis, formation of keratin-filled craters and cysts, diffuse discontinuity of the epidermal layer (ulceration), extensive dermal infiltrate with abundant neutrophils and macrophages, pronounced dermal fibrosclerosis, vanishing of adnexa and evident degenerative changes of the hypodermic adipose tissue. The different parameters were scored separately and summed to obtained a total disease score (Table 22-1). Statistical significance among groups was calculated with a Mann-Whitney U-test.

“Also recorded” adds a separate entry of the source.

Consider “5′-TGCTCCTGGAGGGGTTGT-3′ (DNA, backbone not given here) [SEQ ID NO:42]”, for which, under “(NZBxNZW)F1, single injection prior to tape stripping, 24 hr”, the “induction of IFN-regulated and pro-inflammatory genes” value is on record as “efficiently inhibited this gene induction; also recorded: can be inhibited”. Where the note is “IRS (pre-injury)”, the “Total Disease Score” value is 3.2 ± 0.5, the Dermal inflammation was found to be 1.3 ± 0.2, the Epidermis thickness was determined as 0.7 ± 0.2 and the Intraepithelial inflammation was 0.2 ± 0.2. Also, where the note is “IRS (pre-injury)”, the Panniculum inflammation is recorded as 0.8 ± 0.1 and the Ulceration was found to be 0.0 ± 0.0. For the same substance, where the note is “IRS (therapeutic)”, the “Total Disease Score” value came to 3.5 ± 0.4, the Dermal inflammation turned out to be 1.2 ± 0.1, the Epidermis thickness is reported as 1.0 ± 0.2 and the Intraepithelial inflammation is listed as 0.2 ± 0.2. Under “IRS (therapeutic)”, the Panniculum inflammation amounted to 1.0 ± 0.0 and the Ulceration came to 0.2 ± 0.1. Further, the “lesions, share of the stripped area” value (IRS before skin injury and for the duration, day 15-23) is on record as “less than 15%”. Also, the “surface still covered by open lesions” value (IRS beginning at day 4, day 15-23) was 10%. The “CLE-like phenotype / healing of established lesions” value (therapeutic treatment from day 4) is on record as “accelerated healing; also recorded: significantly ameliorated CLE-like phenotype”. Also, the “disease onset (skin appearance, histology, gene signatures)” value (treatment from the day of tape stripping) is “able to prevent disease onset”.

These data come from patent publication US8940310B2, “Methods of treatment using TLR7 and/or TLR9 inhibitors” (Dynavax Technologies Corporation, priority 2010, dated 2015).
